Measured values as given in patent US5354862A, “Preparation and the use of halopropargylated cyclic quaternary ammonium compounds as antimicrobial agents” (Rohm and Haas Company, priority 1993, dated 1994).
Like-named read-outs stand apart in the source and are kept apart here.

What was measured:
Assay in all cases: Broth two-fold serial dilution MIC test
Escherichia coli = format: cell-based, Escherichia coli (ATCC 11229); conditions: Ecol
Description: (§1) A minimum inhibitory concentration (MIC) value is obtained using a broth, two-fold serial dilution test performed as follows: A stock solution or dispersion of the test compound, typically at a concentration of 1%, is made in a 5:3:2 solvent solution of acetone. methanol, and water. A volume of the stock solution is dispensed into culture media to give an initial starting test concentration of 500 ppm compound.
(§2) When the test is ready to be done, each vessel in the dilution series, except the first vessel, contains an equal volume of compound free broth. The first vessel contains twice the volume of broth with the starting concentration of test compound. One half of the broth from the first vessel is transferred to the second vessel- After being mixed, one half the resulting volume is removed from the second vessel and transferred to the third vessel. The entire cycle is repeated sufficiently to give a series of concentrations amounting to 500, 250, 125, 63, 31, 16, 8, and 4, 2, 1, 0.5, 0.25 ppm respectively.
(§3) Each vessel is then inoculated with a cell suspension of the appropriate test organism. Bacteria are grown in broth, fungi on agar slants for a time and at a temperature appropriate to the species being tested, and algae are a mixture of green algae and blue-green bacteria grown in a nutrient media. At the end of the growth period, in the case of bacteria, the broth is vortexed to disperse the cells.
(§4) In the case of fungi, the spores are harvested by pipetting water onto the slant and dislodging the spores with a sterile loop. The cell/spore suspension is standardized by controlling incubation time, temperature, and the volume of the diluent. The suspension is then used to inoculate the vessels containing the broth compound.
(§5) The vessels are then incubated at the appropriate temperature. After the incubation, the vessels are examined for growth/no growth. The minimum inhibitory concentration (MIC) is defined as the lowest concentration of compound that results in complete inhibition of growth of the test organism.

Aspergillus niger = format: cell-based, Aspergillus niger (ATCC 6275); conditions: Anig, TSB media
Description: as §1, §2, §3, §4, §5
4. Aspergillus niger 6275 Anig

Pseudomonas aeruginosa = format: cell-based, Pseudomonas aeruginosa (ATCC 15442); conditions: Psae
Description: as §1, §2, §3, §4, §5
1. Pseudomonas aeruginosa

Staphylococcus aureus = format: cell-based, Staphylococcus aureus (ATCC 6538); conditions: Saur
Description: as §1, §2, §3, §4, §5
2. Staphylococcus aureus

[1] = Escherichia coli, Table 2, M9G media, read-out: MIC
[2] = Escherichia coli, Table 2, TSB media, read-out: MIC
[3] = Aspergillus niger, Table 2, read-out: MIC
[4] = Pseudomonas aeruginosa, Table 2, M9G media, read-out: MIC
[5] = Pseudomonas aeruginosa, Table 2, TSB media, read-out: MIC
[6] = Staphylococcus aureus, Table 2, M9G media, read-out: MIC
[7] = Staphylococcus aureus, Table 2, TSB media, read-out: MIC

| Structure (SMILES) | MIC (Escherichia coli; [2]) [µg/mL] | MIC (Aspergillus niger; [3]) [µg/mL] | MIC (Pseudomonas aeruginosa; [4]) [µg/mL] | MIC (Pseudomonas aeruginosa; [5]) [µg/mL] | MIC (Staphylococcus aureus; [6]) [µg/mL] | MIC (Staphylococcus aureus; [7]) [µg/mL] | MIC (Escherichia coli; Table 2, M9G media) [ppm] | MIC (Escherichia coli; Table 2, TSB media) [ppm] | MIC (Aspergillus niger; Table 2) [ppm] | MIC (Pseudomonas aeruginosa; Table 2, M9G media) [ppm] | MIC (Pseudomonas aeruginosa; Table 2, TSB media) [ppm] | MIC (Staphylococcus aureus; Table 2, M9G media) [ppm] | MIC (Staphylococcus aureus; Table 2, TSB media) [ppm] | also measured |
| --- | --- | --- | --- | --- | --- | --- | --- | --- | --- | --- | --- | --- | --- | --- |
| CCCCCCCCCC[N+]1(CC#CI)CCOCC1 [Compound 91, 4-decyl-4-(3-iodopropargyl)-morpholinium methanesulfonate] | 8 | 32 | 250 | > 500 | 1 | 8 |  |  |  |  |  |  |  | MIC (Escherichia coli; [1]): 4 µg/mL |
| CCCCCCCCCCCCCC[N+]1(CC#CI)CCCCC1C (stereo not shown) [Compound 55, 1-(tetradecyl)-1-(3-iodopropargyl)-2-methylpiperidinium methanesulfonate] |  |  |  |  |  |  | 4 | 16 | 1 | 125 | 125 | 1 | 8 |  |
| OCCCCCCCC[N+]1(CC#CI)CCCC1 [Compound 3, 1-(8-hydroxyoctyl)-1-(3-iodopropargyl)-pyrrolidinium 4-methylbenzenesulfonate] | > 500 | > 500 | > 500 | > 500 | 500 | > 500 |  |  |  |  |  |  |  |  |
| CCCCCCCCCCCCCC[N+]1(CC#CI)CCCC1 [Compound 87, 1.-tetradecyl-1-(3-iodopropargyl)-pyrrolidinium n-butylsulfonate] |  |  |  |  |  |  | 2 | 4 | 4 | 16 | 64 | 0.25 | 0.25 |  |
| CCCCCCOC(=O)CCCCC[N+]1(CC#CI)CCOCC1 [Compound 81] | 64 | 125 | > 500 | > 500 | 4 | 16 | 64 |  |  |  |  |  |  |  |
| CCCCCCCCCCCCCC[N+]1(CC#CI)CCCC1 [Compound 6, 1-Tetradecyl-1-(3-Iodopropargyl)-Pyrrolidinium 4-Methylbenzenesulfonate] |  |  |  |  | 0.5 | 0.5 | 4 | 4 | < 0.25 | 4 | 4 |  |  | MIC (Escherichia coli; Table 3 comparison, M9G media): 4 ppm; MIC (Escherichia coli; Table 3 comparison, TSB media): 4 ppm; MIC (Aspergillus niger; Aspergillus niger, Table 3 comparison, read-out: MIC): < 0.25 µg/mL; MIC (Pseudomonas aeruginosa; Pseudomonas aeruginosa, Table 3 comparison, M9G media, read-out: MIC): 4 µg/mL; MIC (Pseudomonas aeruginosa; Pseudomonas aeruginosa, Table 3 comparison, TSB media, read-out: MIC): 4 µg/mL; MIC (Staphylococcus aureus; Staphylococcus aureus, Table 3 comparison, M9G media, read-out: MIC): 0.5 µg/mL; MIC (Staphylococcus aureus; Staphylococcus aureus, Table 3 comparison, TSB media, read-out: MIC): 0.5 µg/mL |
| CCCCCCCCCCCCCCCC[N+]1(CC#CI)CC(C)OC(C)C1 (stereo not shown) [Compound 48, 4-hexadecyl-4-(3-iodopropargyl)-2,6-dimethylmorpholinium methanesulfonate] |  |  |  |  |  |  | 2 |  | 1 | 8 | 8 | < 0.25 | 0.5 |  |
| CCCCCCCCCCCCCC[N+]1(CC#CI)CCSCC1 [Compound 57, 4-(tetradecyl)-4-(3-iodopropargyl)-thiomorpholinium benzenesulfonate] | 0.5 | 0.5 | 0.5 | 4 | < 0.25 | < 0.25 |  |  |  |  |  |  |  | MIC (Escherichia coli; [1]): < 0.25 µg/mL |
| CCCCCCCCCCCCCCCC[N+]1(CC#CI)CC(C)OC(C)C1 (stereo not shown) [Compound 46, 4-hexadecyl-4-(3-iodopropargyl)-2,6-dimethylmorpholinium 4-methylbenzenesulfonate] |  |  | 16 | 16 | < 0.25 | < 0.25 | 8 | 8 | 2 |  |  |  |  |  |
| CCCCCCCCCCCCC[N+]1(CC#CI)CCOCC1 [Compound 89, 4-tridecyl-4-(3-iodopropargyl)-morpholinium methanesulfonate] | 8 | 8 | 16 | 64 | 1 | 2 |  |  |  |  |  |  |  | MIC (Escherichia coli; [1]): 2 µg/mL |
| CCCCCCCCCCCCCCCC[N+]1(CC#CI)CCCC1 [Compound 32, 1-hexadecyl-1-(3-iodopropargy)-pyrrolidinium benzenesulfonate] |  |  |  |  |  |  | 4 | 16 | < 0.25 | 32 | 125 | < 0.25 | < 0.25 |  |
| OCC[N+]1(CC#CI)CCCC1 [Compound 1, 1-(2-hydroxyethyl)-1-(3-iodopropargyl)-pyrrolidinium 4-methylbenzenesulfonate] | > 250 | > 250 | > 250 | 125 | 16 | 32 |  |  |  |  |  |  |  |  |
| CCCCCCCCCCCCCC[N+]1(CC#CI)CCOCC1 [Compound 71, 4-tetradecyl-4-(3-iodopropargyl)-morpholinium bromide] |  |  |  |  |  |  | 1 | 4 | 4 | 8 | 32 | 0.25 | 0.25 |  |
| CCCCCCCCCCCCCCCC[N+]1(CC#CI)CCCC1 [Compound 7, 1-hexadecyl-1-(3-iodopropargyl)-pyrrolidinium 4-methylbenzenesulfonate] |  |  |  |  | < 0.25 | < 0.25 |  | 2 | 1 | 4 | 8 |  |  | MIC (Escherichia coli; [1]): 4 µg/mL |
| CCCCCCOC(=O)CCCCC[N+]1(CC#CI)CCCC1 [Compound 84, 1-[5-(hexyloxycarbonyl)]pentyl-1-(3-iodopropargyl)-pyrrolidinium methanesulfonate] |  |  |  |  |  |  | 16 | 32 | 32 | > 500 | > 500 | 2 | 8 |  |

Further lines, with some results ahead:

| MIC (Escherichia coli; [2]) [µg/mL] | MIC (Aspergillus niger; [3]) [µg/mL] | MIC (Pseudomonas aeruginosa; [4]) [µg/mL] | MIC (Pseudomonas aeruginosa; [5]) [µg/mL] | MIC (Staphylococcus aureus; [6]) [µg/mL] | MIC (Staphylococcus aureus; [7]) [µg/mL] | MIC (Escherichia coli; Table 2, M9G media) [ppm] | MIC (Escherichia coli; Table 2, TSB media) [ppm] | MIC (Aspergillus niger; Table 2) [ppm] | MIC (Pseudomonas aeruginosa; Table 2, M9G media) [ppm] | MIC (Pseudomonas aeruginosa; Table 2, TSB media) [ppm] | MIC (Staphylococcus aureus; Table 2, M9G media) [ppm] | MIC (Staphylococcus aureus; Table 2, TSB media) [ppm] | Structure (SMILES) | also measured |
| --- | --- | --- | --- | --- | --- | --- | --- | --- | --- | --- | --- | --- | --- | --- |
| 8 | 125 | 64 | 250 | 0.5 | 8 |  |  |  |  |  |  |  | CCCCCCCCCCOC(=O)C[N+]1(CC#CI)CCOCC1 [Compound 66, 4-(decyioxycarbonyl)methyl-4-(3-iodopropargyl)-morpholiniurn 4methylbenzenesulfonate] | MIC (Escherichia coli; [1]): 2 µg/mL |
|  |  |  |  |  |  | 1 | 4 | 2 | 32 | 64 | 0.25 | 1 | CCCCCCCCCCCC[N+]1(CC#CI)CCCC1 [Compound 79, 1-dodecyl-1-(3-iodopropargyl)-pyrrolidinium bromide] |  |
|  |  |  |  |  |  | 1 | 16 | 1 | 32 | 32 | 0.5 | < 0.25 | CCCCCCCCCCCCC[N+]1(CC#CI)CCCC1 [Compound 31, 1-tridecyl-1-(3-iodopropargyl)-pyrrolidinium benzenesulfonate] |  |
|  |  |  |  |  |  | 2 | 8 | 8 | 32 | 125 | 0.25 | 2 | CCCCCCCCCCCCOC(=O)C[N+]1(CC#CI)CCCC1 [Compound 75, 1-(dodecyloxycarbonyl)methyl-1-(3-iodopropargyl)-pyrrolidinium methanesulfonate] |  |
| 32 | 16 | 250 | 500 | 8 | 16 |  |  |  |  |  |  |  | CCCCCCCCCCOC(=O)CC[N+]1(CC#CI)CCCC1 [Compound 97, 1-[2-(decyloxycarbonyl)]ethyl-1-(3-iodopropargyl)-pyrrolidinium 4-methylbenzenesulfonate] | MIC (Escherichia coli; [1]): 16 µg/mL |
|  |  |  |  |  |  | 1 | 4 | 8 | 32 | 32 | 0.25 | 0.25 | CCCCCCCCCCCCOC(=O)C[N+]1(CC#CI)CCCC1 [Compound 64, 1-(dodecyloxycarbonyl)methyl-1-(3-iodopropargyl)-pyrrolidinium benzenesulfonate] |  |
